Patent publication US20160130278A1 (TAISHO PHARMACEUTICAL CO., LTD, priority 2013, published 2016)

These compounds were tested against T1, human type 1 glycine transporter (GlyT1) (Homo sapiens, UniProt P48067) (assay: Glycine uptake inhibition experiment ([3H]glycine uptake)). Conditions: GlyT1.
T1 construct: T98G cells (glioma cells) expressing human type 1 glycine transporter (GlyT1) were used
T1 sequence (P48067 1-706): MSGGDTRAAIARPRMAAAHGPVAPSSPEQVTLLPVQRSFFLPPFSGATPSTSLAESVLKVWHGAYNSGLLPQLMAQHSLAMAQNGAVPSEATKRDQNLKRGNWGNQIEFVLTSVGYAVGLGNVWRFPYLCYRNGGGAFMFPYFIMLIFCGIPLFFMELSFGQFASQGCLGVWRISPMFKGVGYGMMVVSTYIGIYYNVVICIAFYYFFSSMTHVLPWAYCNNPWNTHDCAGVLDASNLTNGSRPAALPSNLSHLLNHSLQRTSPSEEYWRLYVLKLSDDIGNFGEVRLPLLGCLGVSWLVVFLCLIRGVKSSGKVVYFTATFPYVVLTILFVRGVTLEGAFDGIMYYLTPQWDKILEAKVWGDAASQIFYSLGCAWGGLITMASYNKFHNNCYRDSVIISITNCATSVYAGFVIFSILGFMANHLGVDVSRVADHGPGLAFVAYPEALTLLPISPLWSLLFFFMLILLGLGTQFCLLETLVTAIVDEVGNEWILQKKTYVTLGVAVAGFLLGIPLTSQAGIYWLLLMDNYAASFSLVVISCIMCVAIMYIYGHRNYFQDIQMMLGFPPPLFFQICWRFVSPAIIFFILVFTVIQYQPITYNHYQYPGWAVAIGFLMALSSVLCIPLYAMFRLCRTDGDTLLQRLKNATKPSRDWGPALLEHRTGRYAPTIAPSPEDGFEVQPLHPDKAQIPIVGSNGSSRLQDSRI
Format: cell-based
Protocol: Glycine Uptake Inhibition Experiment
A glycine uptake experiment was conducted in accordance with the method published in Neuron, 8, 927-935, 1992. In the experiment, T98G cells (glioma cells) expressing human type 1 glycine transporter (GlyT1) were used. The T98G cells were seeded in a 96-well plate at 2.0×10^4 cells/well and cultured overnight in a CO2 incubator. The test substance was dissolved in a 100% DMSO solution and then dissolved in a 10 mM HEPES buffer solution (pH 7.4) containing 150 mM sodium chloride, 1 mM calcium chloride, 5 mM potassium chloride, 1 mM magnesium chloride, 10 mM glucose and 0.2% bovine serum albumin. After removing the cell culture medium, the test substance was subjected to a 10-min pretreatment. Subsequently, the test substance and [^3H] glycine (final concentration: 250 nM) were added to the cells and reaction was performed at room temperature for 15 minutes. After the end of the reaction, the extracellular fluid was aspirated with a manifold to remove excess labeled glycine present outside the cells, and then the cells were lysed with a 0.5 M aqueous sodium hydroxide solution. The glycine content in the cells was determined by measuring the radioactivity in the cell lysate with a liquid scintillation counter. Glycine uptake in the presence of 10 μM ALX5407 was defined as non-specific uptake, and the value calculated by subtracting the amount of the non-specific uptake from the total uptake in the absence of 10 μM ALX5407 was defined as specific uptake. In addition, glycine uptake inhibitory activity (IC50 value) was calculated from an inhibition curve at the concentrations of each test substance ranging from 10^−9 to 10^−5 M. It should be noted that ALX5407 is an HCl salt of N-[(3R)-3-([1,1′-biphenyl]-4-yloxy)-3-(4-fluorophenyl)propyl]-N-methylglycine.

**Q.** How did the IC50 turn out when `O=C(NC(c1cccc(F)c1)C1(O)CCC(F)(F)CC1)c1nccc(C(F)(F)F)c1Cl` (single isomer, unassigned) [Compound 77, 3-chloro-N-[(4,4-difluoro-1-hydroxycyclohexyl)(3-fluorophenyl)methyl]-4-(trifluoromethyl)pyridine-2-carboxamide] was run?
**A.** 1.2 µM

**Q.** With `O=C(NC(c1cccc(-n2cccn2)c1)C1(O)CCCC1)c1nccc(C(F)(F)F)c1Cl` (single isomer, unassigned) [Compound 82, 3-chloro-N-{(1-hydroxycyclopentyl)[3-(1H-pyrazol-1-yl)phenyl]methyl}-4-(trifluoromethyl)pyridine-2-carboxamide] as the compound, how does the IC50 read?
**A.** 0.089 µM

**Q.** With `O=C(NC(c1cccc(-n2cccn2)c1)C1(O)CCCC1)c1nccc(C(F)(F)F)c1Cl` (single isomer, unassigned) [Compound 83, 3-chloro-N-{(1-hydroxycyclopentyl)[3-(1H-pyrazol-1-yl)phenyl]methyl}-4-(trifluoromethyl)pyridine-2-carboxamide] as the compound, how does the IC50 read?
**A.** 3.9 µM

**Q.** For `O=C(NC(c1cccc(Br)c1)C1(O)CCC(F)(F)CC1)c1nccc(C(F)(F)F)c1Cl` (single isomer, unassigned) [Compound 89, N-[(3-bromophenyl)(4,4-difluoro-1-hydroxycyclohexyl)methyl]-3-chloro-4-(trifluoromethyl)pyridine-2-carboxamide], which IC50 is on record?
**A.** 1.1 µM

**Q.** For `O=C(NC(c1cccc(Br)c1)C1(O)CCC(F)(F)CC1)c1nccc(C(F)(F)F)c1Cl` (single isomer, unassigned) [Compound 90, N-[(3-bromophenyl)(4,4-difluoro-1-hydroxycyclohexyl)methyl]-3-chloro-4-(trifluoromethyl)pyridine-2-carboxamide], which IC50 is on record?
**A.** 0.3 µM

**Q.** `CCn1cc(-c2cccc(C(NC(=O)c3nccc(C(F)(F)F)c3Cl)C3(O)CCC(F)(F)CC3)c2)cn1` (single isomer, unassigned) [Compound 91, 3-chloro-N-{(4,4-difluoro-1-hydroxycyclohexyl)[3-(1-ethyl-1H-pyrazol-4-yl)phenyl]methyl}-4-(trifluoromethyl)pyridine-2-carboxamide] was tested. Which IC50 did it give?
**A.** 3.8 µM

**Q.** How did the IC50 turn out when `CCn1cc(-c2cccc(C(NC(=O)c3nccc(C(F)(F)F)c3Cl)C3(O)CCC(F)(F)CC3)c2)cn1` (single isomer, unassigned) [Compound 92, 3-chloro-N-{(4,4-difluoro-1-hydroxycyclohexyl)[3-(1-ethyl-1H-pyrazol-4-yl)phenyl]methyl}-4-(trifluoromethyl)pyridine-2-carboxamide] was run?
**A.** 0.027 µM

**Q.** `O=C(NC(c1cc(F)cc(Cl)c1)C1(O)CCCC1)c1nccc(C(F)(F)F)c1Cl` (single isomer, unassigned) [Compound 94, 3-chloro-N-[(3-chloro-5-fluorophenyl)(1-hydroxycyclopentyl)methyl]-4-(trifluoromethyl)pyridine-2-carboxamide] was tested. Which IC50 did it give?
**A.** 0.11 µM

**Q.** How did the IC50 turn out when `O=C(NC(c1ccc(F)c(Cl)c1)C1(O)CCCC1)c1nccc(C(F)(F)F)c1Cl` (single isomer, unassigned) [Compound 97, 3-chloro-N-[(3-chloro-4-fluorophenyl)(1-hydroxycyclopentyl)methyl]-4-(trifluoromethyl)pyridine-2-carboxamide] was run?
**A.** 0.27 µM

**Q.** For `O=C(NC(c1ccc(F)cc1Cl)C1(O)CCCC1)c1nccc(C(F)(F)F)c1Cl` (single isomer, unassigned) [Compound 99, 3-chloro-N-[(2-chloro-4-fluorophenyl)(1-hydroxycyclopentyl)methyl]-4-(trifluoromethyl)pyridine-2-carboxamide], which IC50 is on record?
**A.** 5.2 µM

**Q.** `O=C(NC(c1ccc(F)cc1Cl)C1(O)CCCC1)c1nccc(C(F)(F)F)c1Cl` (single isomer, unassigned) [Compound 100, 3-chloro-N-[(2-chloro-4-fluorophenyl)(1-hydroxycyclopentyl)methyl]-4-(trifluoromethyl)pyridine-2-carboxamide] was tested. Which IC50 did it give?
**A.** 0.059 µM

**Q.** Which IC50 does the source give for `O=C(NC(c1cc(Cl)ccc1Cl)C1(O)CCCC1)c1nccc(C(F)(F)F)c1Cl` (single isomer, unassigned) [Compound 113, 3-chloro-N-[(2,5-dichlorophenyl)(1-hydroxycyclopentyl)methyl]-4-(trifluoromethyl)pyridine-2-carboxamide] here?
**A.** 1.7 µM

**Q.** How did the IC50 turn out when `O=C(NC(c1cc(Cl)ccc1Cl)C1(O)CCCC1)c1nccc(C(F)(F)F)c1Cl` (single isomer, unassigned) [Compound 114, 3-chloro-N-[(2,5-dichlorophenyl)(1-hydroxycyclopentyl)methyl]-4-(trifluoromethyl)pyridine-2-carboxamide] was run?
**A.** 0.065 µM

**Q.** Which IC50 does the source give for `O=C(NC(c1cc(Cl)cc(Cl)c1)C1(O)CCCC1)c1nccc(C(F)(F)F)c1Cl` (single isomer, unassigned) [Compound 115, 3-chloro-N-[(3,5-dichlorophenyl)(1-hydroxycyclopentyl)methyl]-4-(trifluoromethyl)pyridine-2-carboxamide] here?
**A.** 0.059 µM

**Q.** `O=C(NC(c1cccc(Cl)c1Cl)C1(O)CCCC1)c1nccc(C(F)(F)F)c1Cl` (single isomer, unassigned) [Compound 116, 3-chloro-N-[(2,3-dichlorophenyl)(1-hydroxycyclopentyl)methyl]-4-(trifluoromethyl)pyridine-2-carboxamide] was tested. Which IC50 did it give?
**A.** 6 µM

**Q.** Which IC50 does the source give for `O=C(NC(c1cccc(Cl)c1Cl)C1(O)CCCC1)c1nccc(C(F)(F)F)c1Cl` (single isomer, unassigned) [Compound 117, 3-chloro-N-[(2,3-dichlorophenyl)(1-hydroxycyclopentyl)methyl]-4-(trifluoromethyl)pyridine-2-carboxamide] here?
**A.** 0.029 µM

**Q.** For `CCn1cc(-c2cccc(C(NC(=O)c3cccc(C(F)(F)F)c3Cl)C3(O)CCC(F)(F)CC3)c2)cn1` (single isomer, unassigned) [Compound 121, 2-chloro-N-{(4,4-difluoro-1-hydroxycyclohexyl)[3-(1-ethyl-1H-pyrazol-4-yl)phenyl]methyl}-3-(trifluoromethyl)benzamide], which IC50 is on record?
**A.** 7.4 µM

**Q.** How did the IC50 turn out when `CCn1cc(-c2cccc(C(NC(=O)c3cccc(C(F)(F)F)c3Cl)C3(O)CCC(F)(F)CC3)c2)cn1` (single isomer, unassigned) [Compound 122, 2-chloro-N-{(4,4-difluoro-1-hydroxycyclohexyl)[3-(1-ethyl-1H-pyrazol-4-yl)phenyl]methyl}-3-(trifluoromethyl)benzamide] was run?
**A.** 0.22 µM

**Q.** How did the IC50 turn out when `CC(C)n1cc(-c2cccc(C(NC(=O)c3nccc(C(F)(F)F)c3Cl)C3(O)CCC(F)(F)CC3)c2)cn1` (single isomer, unassigned) [Compound 133, 3-chloro-N-[(4,4-difluoro-1-hydroxycyclohexyl){3-[1-(propan-2-yl)-1H-pyrazol-4-yl]phenyl}methyl]-4-(trifluoromethyl)pyridine-2-carboxamide] was run?
**A.** 3.5 µM

**Q.** How did the IC50 turn out when `CC(C)n1cc(-c2cccc(C(NC(=O)c3nccc(C(F)(F)F)c3Cl)C3(O)CCC(F)(F)CC3)c2)cn1` (single isomer, unassigned) [Compound 134, 3-chloro-N-[(4,4-difluoro-1-hydroxycyclohexyl){3-[1-(propan-2-yl)-1H-pyrazol-4-yl]phenyl}methyl]-4-(trifluoromethyl)pyridine-2-carboxamide] was run?
**A.** 0.031 µM

**Q.** How did the IC50 turn out when `O=C(NC(c1cccc(-c2cnn(CC(F)(F)F)c2)c1)C1(O)CCC(F)(F)CC1)c1nccc(C(F)(F)F)c1Cl` (single isomer, unassigned) [Compound 135, 3-chloro-N-[(4,4-difluoro-1-hydroxycyclohexyl){3-[1-(2,2,2-trifluoroethyl)-1H-pyrazol-4-yl]phenyl}methyl]-4-(trifluoromethyl)pyridine-2-carboxamide] was run?
**A.** 0.072 µM

**Q.** With `O=C(NC(c1cccc(Cl)c1Cl)C1(O)CCC(F)(F)CC1)c1nccc(C(F)(F)F)c1Cl` (single isomer, unassigned) [Compound 136, 3-chloro-N-[(2,3-dichlorophenyl)(4,4-difluoro-1-hydroxycyclohexyl)methyl]-4-(trifluoromethyl)pyridine-2-carboxamide] as the compound, how does the IC50 read?
**A.** 3.7 µM
